# Results taken from patent US20090317395A1, “Antimicrobial Peptide Derived from Galanin Message Associated Peptide (GMAP)” (priority 2006, published 2009).
# Where “and” joins values, the source holds several entries; their conditions need not be identical. Equal entries are not always repeated. Entries after “also recorded” stand apart in the source; their conditions may differ.
# How the values were obtained:
# Candida albicans [1] = experiment: Antifungal (growth inhibition) activity against C. albicans; format: cell-based; details: for inhibitory growth effect / antimicrobial activity against C. albicans: FIG. 3 (C), ** p<0.05
# Description: The inventors analyzed the antimicrobial activity of peptide fragments corresponding to ppGAL against gram-negative E. coli gram-positive Staphylococcus aureus and Corynebacterium sp. and the yeast Candida albicans and Aspergillus fumigatus. Positive controls were the antimicrobial peptides Indolicidin, NPY 13-36 and Magainin I, as a negative control served the Adrenocorticotropic hormone (ACTH) 18-39 (Cutuli M, Cristiani S, Lipton J M and Catania A: Antimicrobial effects of alpha-MSH peptides. J Leukoc Biol 67:233-239, 2000; Selsted M E, Novotny M J, Morris W L, Tang Y Q, Smith W and Cullor J S: Indolicidin, a novel bactericidal tridecapeptide amide from neutrophils. J Biol Chem. 267:4292-4295., 1992; Shimizu M, Shigeri Y, Tatsu Y, Yoshikawa S and Yumoto N: Enhancement of antimicrobial activity of neuropeptide Y by N-terminal truncation. Antimicrob Agents Chemother 42:2745-2746, 1998; Zasloff M: Magainins, a class of antimicrobial peptides from Xenopus skin: isolation, characterization of two active forms, and partial cDNA sequence of a precursor. Proc Natl Acad Sci USA 84:5449-5453, 1987).
# None of the peptide fragments tested of the ppGal gene did reveal antibacterial activity. […] The antifungal activity can be found already at a concentration of […] (4 μM).
# Candida albicans [2] = experiment: Microscopic examination of treated Candida albicans cultures for hyphae (yeast-to-hypha switch); format: cell-based
# Description: Cultures of Candida albicans were treated for 24 and 48 hrs either with the common antifungal substance fluconazol, GMAP 16-42 or Galanin.
# [3] = interpretation of microscopy findings
compound,measurement,setting,value
SIPENNIMRTIIEFLSFLHLKEAGAL (listed as Homo sapiens) [GMAP 16-41],concentration at which antifungal activity can be found,Candida albicans [1]; C. albicans,12 pg/ml and 4 μM
same,inhibitory growth effect / antimicrobial activity against C. albicans,Candida albicans [1],antimicrobial core sequence
ELRPEDDMKPGSFDRSIPENNIMRTIIEFLSFLHLKEAGAL (listed as Homo sapiens) [GMAP 1-41],inhibitory growth effect / antimicrobial activity against C. albicans,Candida albicans [1],active compound
GMAP: galanin message associated peptide; in b114 refers to the GMAP fragment treated wells (ELRPEDDMKPGSFDRSIPENNIMRTIIEFLSFLHLKEAGAL; listed as Homo sapiens),effect on proliferation of Candida per se,Candida albicans [2]; [3],not to significantly affect the proliferation of Candida per se
same,effect on switch to pathogenic hyphal forms,Candida albicans [2]; [3],inhibits the switch to pathogenic hyphal forms; also recorded: inhibits the pathogenic phenotypic switch of C. albicans
"OC(Cn1cncn1)(Cn1cncn1)c1ccc(F)cc1F [fluconazol, reference compound]",microscopic examination of cultures: hyphae / yeast forms,Candida albicans [2]; treated for 24 and 48 hrs,hyphae were only visible in the untreated and galanin treated wells
same,microscopic examination of cultures: hyphae / yeast forms,Candida albicans [2]; treated for 48 hrs (FIG. 4),hyphae were only visible in the untreated and galanin treated wells
